Measured values: paper PMC9264115, “Pd-catalyzed C–C and C–N cross-coupling reactions in 2-aminothieno[3,2-d]pyrimidin-4(3H)-one series for antiplasmodial pharmacomodulation” (RSC Advances, 2022)

Key:
[1] = system: K1 culture-adapted P. falciparum strain; experiment: Antiplasmodial evaluation, SYBR Green I fluorescence-based drug susceptibility test; assay type: cell-based; settings: for EC50: Plasmodium falciparum, multi-resistant K1 strain of P. falciparum, 72 h incubation, three independent experiments, read-out: EC50 PfK1; for SI (selectivity index): from CC50 HepG2 and EC50 PfK1
Protocol: […]. Parasitemia was maintained daily between 1 and 3%. The P. falciparum drug susceptibility test was carried out by comparing quantities of DNA in treated and control cultures of parasite in human erythrocytes according to a SYBR Green I fluorescence-based method[19] using a 96-well fluorescence plate reader. Compounds previously dissolved in DMSO (final concentration less than 0.5% v/v) were incubated in a total assay volume of 200 μL (RPMI, 2% hematocrit and 0.4% parasitemia) for 72 h in a humidified atmosphere (10% O2 and 5% CO2) at 37 °C in 96-well flat bottom plates. Duplicate assays were performed for each sample. After incubation, plates were frozen at […] for 24 h. Then, the frozen plates were thawed for 1 h at 37 °C. Fifteen μL of each sample were transferred to 96-well flat bottom non-sterile black plates (Greiner Bio-one, Kremsmünster, Austria), already containing 15 μL of the SYBR Green I lysis buffer (2X SYBR Green I, 20 mM Tris base pH 7.5, 20 mM EDTA, 0.008% w/v saponin, 0.08% w/v Triton X-100). […] Plates were incubated for 15 min at 37 °C and then read on a TECAN Infinite F-200 spectrophotometer with excitation and emission wavelengths at 485 and 535 nm, respectively.

[2] = Cytotoxic evaluation, MTT assay; assay type: cell-based; settings: HepG2 cells, human HepG2 cell line, three independent experiments
Protocol: The HepG2 cell line was maintained at 37 °C, 5% CO2, at 90% humidity in […] supplemented with 10% fetal bovine serum, 1% L-glutamine (200 mM), and penicillin (100 U per mL)/streptomycin (100 μg mL^−1) (complete RPMI medium). The cytotoxicity of the tested molecules on the HepG2 (hepatocarcinoma cell line purchased from ATCC, ref HB-8065) cell line was assessed according to the method of Mosmann[20] with slight modifications. Briefly, 5 × 10^3 cells in 100 μL of complete medium were inoculated into each well of 96-well plates and incubated at 37 °C in humidified 5% CO2. After 24 h incubation, 100 μL of medium with various product concentrations dissolved in DMSO (final concentration less than 0.5% v/v) were added and the plates were incubated for 72 h at 37 °C. Triplicate assays were performed for each sample. Each plate was then microscopically examined for possible precipitate formation before the medium was aspirated from the wells. Next, 100 μL of MTT (3-(4,5-dimethyl-2-thiazolyl)-2,5-diphenyl-2H-tetrazolium bromide) solution (0.5 mg mL^−1 in medium without FBS) was added to each well. Cells were incubated for 2 h at 37 °C. After this time, the MTT solution was removed and DMSO (100 μL) was added to dissolve the resulting blue formazan crystals. Plates were shaken vigorously (700 rpm) for 10 min. The absorbance was measured at 570 nm with 630 nm as a reference wavelength using a BIO-TEK ELx808 Absorbance Microplate Reader (LabX, Midland, ON, Canada). DMSO was used as a blank and doxorubicin (purchased from Sigma Aldrich) as a positive control. Cell viability was calculated as a percentage of control (cells incubated without the compound). […] CC50 values to represent the mean value calculated from three independent experiments.

Compound	melting point [°C]	EC50 [1] [µM]	SI (selectivity index) [1]	CC50 at 72 h [2] [µM]
CSc1ccc(-c2cc3nc(NC(C)(C)C)[nH]c(=O)c3s2)cc1 [Compound 4j, 2-tert-Butylamino-6-[4-(methylsulfanyl)phenyl]thieno[3,2-d]pyrimidin-4(3H)-one]	272 to 274	1 ± 0.3	>12.5	> 12.5
CC(C)(C)Nc1nc2cc(-c3ccc(S(N)(=O)=O)cc3)sc2c(=O)[nH]1 [Compound 4l, 4-(2-tert-Butylamino-4-oxo-3,4-dihydrothieno[3,2-d]pyrimidin-6-yl)benzenesulfonamide]	> 300	> 12.5	–	> 6.25
CC(C)(C)Nc1nc2cc(-c3ccc(S(=O)(=O)N4CCOCC4)cc3)sc2c(=O)[nH]1 [Compound 4m, 2-tert-Butylamino-6-[4-(morpholin-4-ylsulfonyl)phenyl]thieno[3,2-d]pyrimidin-4(3H)-one]	> 300	5.1 ± 2.6	>2.5	> 12.5
CC(C)(C)Nc1nc2cc(-c3cnc(N4CCOCC4)nc3)sc2c(=O)[nH]1 [Compound 4n, 2-tert-Butylamino-6-[2-(morpholin-4-yl)pyrimidin-5-yl]thieno[3,2-d]pyrimidin-4(3H)-one]	> 300	2.1 ± 0.6	12.6	26.4 ± 4.6
CN1CCN(c2ncc(-c3cc4nc(NC(C)(C)C)[nH]c(=O)c4s3)cn2)CC1 [Compound 4o, 2-tert-Butylamino-6-[2-(4-methylpiperazin-1-yl)pyrimidin-5-yl]thieno[3,2-d]pyrimidin-4(3H)-one]	289 to 291	4.4 ± 1	2.5	11.2 ± 1.3
CC(C)(C)Nc1nc2cc(-c3ccc(N)cc3)sc2c(=O)[nH]1 [Compound 4p, 6-(4-aminophenyl)-2-tert-butylaminothieno[3,2-d]pyrimidin-4(3H)-one]	259 to 261	3.5 ± 1.2	0.7	2.5 ± 1
CC(=O)Nc1ccc(-c2cc3nc(NC(C)(C)C)[nH]c(=O)c3s2)cc1 [Compound 4r, N-[4-(2-tert-butylamino-4-oxo-3,4-dihydrothieno[3,2-d]pyrimidin-6-yl)phenyl]acetamide]	> 300	3.9 ± 1.1	<0.1	0.16 ± 0.04
CC(C)(C)Nc1nc2cc(-c3ccc(S(C)(=N)=O)cc3)sc2c(=O)[nH]1 (stereo not shown) [Compound 4s, 2-tert-Butylamino-6-[4-(methylsulfonimidoyl)phenyl]thieno[3,2-d]pyrimidin-4(3H)-one]	251 to 253	> 12.5	<5.1	63.3 ± 14.6
